Laboratory results as given in US20250326708A1, “LONG-ACTING SPLEEN-TARGETING CATIONIC LIPID COMPOUND COMPRISING BENZENE RING STRUCTURE, COMPOSITION COMPRISING SAME, AND USE THEREOF” (Beijing Youcarekechuang Pharmaceutical Technology Co., Ltd., priority 2024, published 2025).

Tested on: female BALB/C mice
Assay: Distribution of delivered small nucleic acid drug (Cy5 fluorescently labeled Leqvio) in different organs of mice
Type: in vivo
Method: LNP preparations containing 5 μg of Cy5 fluorescently labeled Leqvio were injected via the tail vein into female BALB/C mice (4 to 6 weeks old, weighing 17 to 19 g). At a specific time point after administration (4 h), the average radiation intensity (corresponding to fluorescence intensity) resulting from the Cy5 fluorescently labeled Leqvio delivered by the LNP preparations in the mice in vivo was detected using the IVIS Spectrum small-animal in vivo imaging system. After sampling, the mice were killed by cervical dislocation and dissected, and the internal organs: heart, liver, spleen, lung, kidney, and lymph of mice were accurately isolated. The average radiation intensity (corresponding to fluorescence intensity) resulting from Cy5 fluorescently labeled Leqvio delivered by the LNP preparations in various organs of mice was then detected using the IVIS Spectrum small-animal in vivo imaging system.

[1] = 4 hours after 5 μg Cy5 fluorescently labeled Leqvio via tail vein

- Average radiation intensity of mouse organs: Heart [1]: 0
- Average radiation intensity of mouse organs: Kidney [1]: 53243
- Average radiation intensity of mouse organs: Liver [1]: 33583
- Average radiation intensity of mouse organs: Lung [1]: 0
- Average radiation intensity of mouse organs: Lymph [1]: 0
- Average radiation intensity of mouse organs: Spleen [1]: 63583
- Fluorescence intensity in the spleen, times that of SM-102 (Cy5 Leqvio, spleen, 4 h, vs SM-102): 51.19 times
- Fluorescence intensity in the spleen, times that of YK-501 (Cy5 Leqvio, spleen, 4 h, vs YK-501): 11.91 times
- Fluorescence intensity in the spleen, times that of YK-506 (Cy5 Leqvio, spleen, 4 h, vs YK-506): 2.85 times
- Fluorescence intensity in the spleen, times that of direct administration (Cy5 Leqvio, spleen, 4 h, vs direct administration): 150.67 times
SMILES: CCCCCCCCCCCOC(=O)CCCN(CCCCCCC(=O)OCCC(CCCCCC)CCCCCC)CCNC(CO)(CO)CCc1ccc(CCCCCCCC)cc1 [YK-910, 3-hexylnonyl 7-((2-((1-hydroxy-2-(hydroxymethyl)-4-(4-octylphenyl)butan-2-yl)amino)ethyl) (4-oxo-4-(undecyloxy)butyl)amino) heptanoate]
